Laboratory results published in patent publication US8603528B2, “Compositions and method for the reduction of post-operative pain” (ABYRX, Inc., priority 2004, dated 2013).
“Also recorded” adds a separate entry of the source.

Assay: Evaluation of elution rates of analgesic from a 0.5 gm composition button in phosphate buffer, HPLC-UV
Assay type: physicochemical
Experimental: The surface area exposed to the buffer is about 0.785 sq. cm. One cc aliquots of the buffer solution are taken over a three day period, every 2 hours during business hours of day one, then several times on each of days two and three. […] The same procedure was followed for measurement of the elution of bupivacaine free base and hydrochloride.

| SMILES | effect of the added material on the elution rate of the anesthetic from the putty | period over which the free base of lidocaine is eluted (liquid component of the putty changed from triethyl citrate to Pluronic L-35 and tocopheryl acetate) | period over which the free base of lidocaine is released (putty-like composition comprising lidocaine free base, calcium stearate and liquid triethyl citrate) |
| --- | --- | --- | --- |
| CCCCCCCCCCCC(=O)OCC [ethyl laurate] | retard the elution | – | – |
| CCCCCCCCCCCCOC(C)=O [lauryl acetate] | retard the elution | – | – |
| CC(=O)Oc1c(C)c(C)c2c(c1C)CCC(C)(CCC[C@H](C)CCC[C@H](C)CCCC(C)C)O2 (some centres unmarked) [tocopheryl acetate] | slow down the elution rate; also recorded: reduces the elution rate; also recorded: retard the elution | – | – |
| CCN(CC)CC(=O)Nc1c(C)cccc1C [lidocaine free base, lidocaine, reference compound] | – | eight | three |
